target: CDK2 (UniProt P24941); assay: Enzyme Assay

Row | IC50 [nM] | Structure (SMILES)
1 | 0.1 to 100 | [O-][n+]1cccc(CNc2cc(-c3ccccc3F)nc3c(Br)cnn23)c1
2 | 0.1 to 100 | OCC1(Nc2cc(NCc3cccnc3)n3ncc(Br)c3n2)CCCC1
3 | 0.1 to 100 | CC(C)(O)[C@H]1CCCC[C@H]1c1cc(NCc2cccnc2)n2ncc(Br)c2n1
4 | 0.1 to 100 | CS(=O)(=O)N1CCC(c2cc(NCc3cccnc3)n3ncc(Br)c3n2)CC1
5 | 0.1 to 100 | O=C(C1CC1)N1CCC(c2cc(NCc3cccnc3)n3ncc(Br)c3n2)CC1
6 | 0.1 to 100 | CC(C)[C@H](CO)Nc1cc(NCc2ccc[n+]([O-])c2)n2ncc(Br)c2n1
7 | 0.1 to 100 | O=c1ccc(CNc2cc(-c3ccccc3)nc3c(Br)cnn23)c[nH]1
8 | 0.1 to 100 | [O-][n+]1cccc(CNc2cc(C3CCNCC3)nc3c(Br)cnn23)c1
9 | 0.1 to 100 | [O-][n+]1cccc(CNc2cc(C3CCOCC3)nc3c(Br)cnn23)c1
10 | 0.1 to 100 | Brc1cnn2c(NCc3ccc4[nH]cnc4c3)cc(C3CCNCC3)nc12
11 | 0.1 to 100 | CCc1cnn2c(NCc3cccnc3)cc(-c3ccccc3)nc12
12 | 0.1 to 100 | CCOc1ccc(CNc2cc(-c3ccccc3)nc3c(Br)cnn23)c[n+]1[O-]
13 | 0.1 to 100 | COc1c(Cl)cc(CNc2cc(-c3ccccc3)nc3c(Br)cnn23)c[n+]1[O-]
14 | 0.1 to 100 | OCC[C@@H]1CCCN1c1cc(NCc2cccnc2)n2ncc(Br)c2n1
15 | 0.1 to 100 | OC[C@H]1CCCC[C@H]1c1cc(NCc2cccnc2)n2ncc(Br)c2n1
16 | 0.1 to 100 | COc1ccc(CNc2cc(-c3ccccc3F)nc3c(Br)cnn23)c[n+]1[O-]
17 | 0.1 to 100 | CC(C)[C@@H](CO)Nc1cc(NCc2ccc[n+]([O-])c2)n2ncc(Br)c2n1
18 | 0.1 to 100 | Brc1cnn2c(NCc3ccc(-c4csnn4)cc3)cc(C3CCNCC3)nc12
19 | 0.1 to 100 | Brc1cnn2c(NCc3cccnc3)cc(-c3ccccc3)nc12
20 | 0.1 to 100 | Nc1ncc(CNc2cc(C3CCCNC3)nc3c(Br)cnn23)cn1 (configuration not stated)
21 | 0.1 to 100 | OC[C@H]1CCCC[C@H]1Nc1cc(NCc2cccnc2)n2ncc(Br)c2n1

Row | IC50 [nM] | Structure (SMILES)
22 | 0.1 to 100 | Cn1cnc2cc(CNc3cc(-c4ccccc4)nc4c(Br)cnn34)ccc21
23 | 0.1 to 100 | Fc1ccccc1-c1cc(NCc2ccc3[nH]cnc3c2)n2ncc(Br)c2n1
24 | 0.1 to 100 | [O-][n+]1cccc(CNc2cc(-c3ccccc3Cl)nc3c(Br)cnn23)c1
25 | 0.1 to 100 | CS(=O)(=O)N1CCCC(c2cc(NCc3cccnc3)n3ncc(Br)c3n2)C1 (configuration not stated)
26 | 0.1 to 100 | CCc1cnn2c(NCc3ccc[n+]([O-])c3)cc(-c3ccccc3)nc12
27 | 0.1 to 100 | Brc1cnn2c(NCc3cccnc3)cc(C3CCCNC3)nc12 (configuration not stated)
28 | 0.1 to 100 | [O-][n+]1cccc(CNc2cc(C3CCCCC3)nc3c(Br)cnn23)c1
29 | 0.1 to 100 | CC(C)(CO)Nc1cc(NCc2cccnc2)n2ncc(Br)c2n1
30 | 0.1 to 100 | [O-][n+]1cccc(CNc2cc(N3CCC[C@H]3CO)nc3c(Br)cnn23)c1
31 | 0.1 to 100 | Cc1ccccc1-c1cc(NCc2ccc[n+]([O-])c2)n2ncc(Br)c2n1
32 | 0.1 to 100 | OCCC1CCCCN1c1cc(NCc2cccnc2)n2ncc(Br)c2n1 (configuration not stated)
33 | 0.1 to 100 | Brc1cnn2c(NCc3cccnc3)cc(-c3ccco3)nc12
34 | 0.1 to 100 | O=c1cc(CNc2cc(-c3ccccc3)nc3c(Br)cnn23)cc[nH]1
35 | 0.1 to 100 | CCc1cnn2c(NCc3ccnc(O)c3)cc(-c3ccccc3)nc12
36 | 0.1 to 100 | CC(C)(O)[C@@H]1CCCN1c1cc(NCc2cccnc2)n2ncc(Br)c2n1
37 | 0.1 to 100 | Brc1cnn2c(NCc3ccc4[nH]cnc4c3)cc(C3CCCCC3)nc12
38 | 0.1 to 100 | Oc1cc(CNc2cc(C3CCCCC3)nc3c(Br)cnn23)ccn1
39 | 0.1 to 100 | [O-][n+]1cccc(CNc2cc(-c3cccs3)nc3c(Br)cnn23)c1
40 | 0.1 to 100 | CNC(=O)c1ccc(CNc2cc(-c3ccccc3F)nc3c(Br)cnn23)cc1
41 | 0.1 to 100 | CCc1cnn2c(NCc3ccc[n+]([O-])c3)cc(-c3ccccc3F)nc12
42 | 0.1 to 100 | Brc1cnn2c(NCc3cccnc3)cc(C3CCCCC3)nc12

Row | IC50 [nM] | Structure (SMILES)
43 | 0.1 to 100 | O=c1ccc(CNc2cc(C3CCCCC3)nc3c(Br)cnn23)c[nH]1
44 | 0.1 to 100 | NC(=O)N1CCC(c2cc(NCc3cccnc3)n3ncc(Br)c3n2)CC1
45 | 0.1 to 100 | OCC1CCCCN1c1cc(NCc2cccnc2)n2ncc(Br)c2n1 (configuration not stated)
46 | 0.1 to 100 | Brc1cnn2c(NCc3cccnc3)cc(C3CCOCC3)nc12
47 | 0.1 to 100 | [O-][n+]1cccc(CNc2cc(-c3ccc(Cl)cc3)nc3c(Br)cnn23)c1
48 | 0.1 to 100 | CC(C)(O)[C@@H]1CCCN1c1cc(NCc2ccc[n+]([O-])c2)n2ncc(Br)c2n1
49 | 0.1 to 100 | N[C@H]1CC[C@H](Nc2cc(NCc3cccnc3)n3ncc(Br)c3n2)CC1
50 | 0.1 to 100 | NC(=O)N1CCCC(c2cc(NCc3cccnc3)n3ncc(Br)c3n2)C1 (configuration not stated)
51 | 0.1 to 100 | CC(=O)N1CCC(c2cc(NCc3cccnc3)n3ncc(Br)c3n2)CC1
52 | 0.1 to 100 | CCc1cnn2c(NCc3ccc(OC)[n+]([O-])c3)cc(-c3ccccc3F)nc12
53 | 0.1 to 100 | CC(C)c1cc(NCc2ccc[n+]([O-])c2)n2ncc(Br)c2n1
54 | 0.1 to 100 | Brc1cnn2c(NCc3cccnc3)cc(C3CCNCC3)nc12
55 | 0.1 to 100 | [O-][n+]1cccc(CNc2cc(-c3ccccc3)nc3c(Br)cnn23)c1
56 | 0.1 to 100 | CC1(C)[C@@H]2[C@@H](CO)N(c3cc(NCc4cccnc4)n4ncc(Br)c4n3)C[C@@H]21
57 | 0.1 to 100 | O=c1ccc(CNc2cc(-c3ccccc3F)nc3c(Br)cnn23)c[nH]1
58 | 0.1 to 100 | [O-][n+]1cc(CNc2cc(-c3ccccc3)nc3c(Br)cnn23)ccc1OCC(F)(F)F
59 | 0.1 to 100 | CC(=O)N1CCCC(c2cc(NCc3cccnc3)n3ncc(Br)c3n2)C1 (configuration not stated)
60 | 0.1 to 100 | CCc1cnn2c(NCc3ccc[n+]([O-])c3)cc(C3CCCCC3)nc12
61 | 0.1 to 100 | CC(C)Oc1ccc(CNc2cc(-c3ccccc3F)nc3c(Br)cnn23)c[n+]1[O-]
62 | 0.1 to 100 | [O-][n+]1cccc(CNc2cc(-c3ccco3)nc3c(Br)cnn23)c1
